From patent US4122179A, “Acid addition salts of vincamine and apovincamine” (priority 1976, dated 1978)

What was measured:
[1] = LD50 / acute toxicity, intraperitoneal route; format: in vivo; settings: i.p.; for Toxicity (Gleason): Gleason class in words, classes not defined
[2] = Hematic levels at different times after oral administration (absorption); format: in vivo, Wistar rat; settings: 100 mg/kg expressed as vincamine/apovincamine, 5% carboxymethyl cellulose suspension
Protocol: (§1) For the compounds of the present invention a number of pharmacological and pharmacokinetic tests have been carried out. […] As regards the pharmacological and pharmacodynamic activity, it has been studied on the percent variations of the hematic flow, as recorded at the vertebral arteria in the dog after administration of the tested compounds. As regards the pharmacokinetic tests, the compounds were administered per oral route to the Wistar rat, and the hematic levels at different times from the administration were measured.
For the evaluation of the absorption, all the compounds have been orally administered at the dosage of 100 mg/kg, expressed as vincamine and apovincamine, in form of a suspension in a 5% carboxymethyl cellulose solution.
The absorption was determined by evaulating the hematic levels at the following times (minutes) : 0, 30, 120, 240, 480, 10 hours and 12 hours, in order also to assess the time from the administration (max conc.time) the maximum absorption occurred.
The vincamine and apovincamine concentrations were assessed by chromatographic method.
For the evaluation of the prolonged action of the salts and of the adducts of vincamine and apovincamine the following criterium was adopted; as derivatives having a long-acting effect, there are considered those which, 120 minutes after the administration, show hematic levels higher than those obtained with vincamine and apovincamine.

[3] = tested on: vertebral arteria; assay: Cerebral vasodilating activity: hematic flow at the vertebral arteria after i.v. administration; format: in vivo; settings: i.v. (femoral vein), 5 mg/kg of vincamine/apovincamine, anesthetized dog, 4 animals per compound
Protocol: as §1
The cerebral vasodilating activity was studied in the anestetized dog, by measuring, by means of Statham periarterial electromagnetic flowmeters, the hematic flow at the level of the […] which, in such animal species, constitutes the greatest blood supply to the brain.
The resuls are reported in the TABLE 2 (last column) as the percent variations of the flow measured at the level of the ledt vertebral arteria after the i.v. administration of the several compounds to be tested to groups of 4 animals for each compound. The results also confirm that the compounds of the invention are all endowed with a vasodilating activity at the level of the cerebral circulus, such an action being, for some compounds, much more remarkable than that of vincamine and apovincamine.

[4] = Solubility; format: physicochemical; settings: qualitative; for solubility in alcohol: alcohol (ethyl alcohol)

Compound	LD50 [1]	Toxicity (Gleason) [1]	Max. conc. time ([2]; 100 mg/kg)	% increase (percent variation of hematic flow, left vertebral arteria) ([3]; 5 mg/kg)	solubility in the common (organic) solvents [4]	solubility in water [4]	solubility in alcohol [4]	Max. conc. time [2]	% increase (percent variation of hematic flow, left vertebral arteria) [3]
CC[C@]12CCCN3CCc4c(n(c5ccccc45)[C@@](O)(C(=O)OC)C1)[C@@H]32 [Example 26.a]	1000 mg/kg	modest	120 min	23.8%	insoluble	insoluble	–	–	–
CC[C@]12CCCN3CCc4c(n(c5ccccc45)[C@@](O)(C(=O)OC)C1)[C@@H]32 [Example 11.a, Vincamine 4-acetamidobutyrate]	700 mg/kg	modest	480 min	29.3%	–	insoluble	insoluble	–	–
CC[C@@]12C=C(C(=O)OC)n3c4c(c5ccccc53)CCN(CCC1)[C@H]42 [Example 22.b, Apovincamine caprate]	1900 mg/kg	light	240 min	28.2%	–	insoluble	insoluble	–	–
CC[C@]12CCCN3CCc4c(n(c5ccccc45)[C@@](O)(C(=O)OC)C1)[C@@H]32 [Example 3.a, Vincamine glucose-1-phosphate]	1150 mg/kg	light	240 min	29.0%	–	partially soluble	–	–	–
Vincamine tannate [Example 24.a]	700 mg/kg	modest	–	–	–	–	soluble	240 min	26.2%
Vincamine-pectin (2:1 adduct) [Example 31.a]	2000 mg/kg	negligible	–	–	practically insoluble	practically insoluble	–	240 min	24.9%
CC[C@]12CCCN3CCc4c(n(c5ccccc45)[C@@](O)(C(=O)OC)C1)[C@@H]32 [Example 28.a, Vincamine salicylate]	700 mg/kg	modest	240 min	25.7%	insoluble	insoluble	soluble	–	–
CC[C@@]12C=C(C(=O)OC)n3c4c(c5ccccc53)CCN(CCC1)[C@H]42 [Example 7.b, Apovincamine 3,5-dihydroxybenzoate]	750 mg/kg	modest	240 min	26.0%	–	insoluble	soluble	–	–
CC[C@]12CCCN3CCc4c(n(c5ccccc45)[C@@](O)(C(=O)OC)C1)[C@@H]32 [Example 6.a, Vincamine 2,5-dihydroxybenzoate]	800 mg/kg	modest	120 min	28.0%	–	insoluble	insoluble	–	–
CC[C@@]12C=C(C(=O)OC)n3c4c(c5ccccc53)CCN(CCC1)[C@H]42 [Example 6.b, Apovincamine 2,5-dihydroxybenzoate]	750 mg/kg	modest	240 min	30.9%	–	insoluble	insoluble	–	–
CC[C@@]12C=C(C(=O)OC)n3c4c(c5ccccc53)CCN(CCC1)[C@H]42 [Example 8.b, Apovincamine p-toluensulfonate]	900 mg/kg	modest	480 min	29.0%	–	insoluble	soluble	–	–
